Residue numbers refer to the chain shown, from its start. Counter-ions that a name gives are not always drawn. Like-named read-outs stand apart in the source and are kept apart here.
How the values were obtained:
HEA-1 = biological target: T1, HEA-1 (Homo sapiens, UniProt P03372, G521R); conditions: cell culture; Roscilli et al., 2002; cited from earlier work
T1 sequence (P03372 303-595 G521R): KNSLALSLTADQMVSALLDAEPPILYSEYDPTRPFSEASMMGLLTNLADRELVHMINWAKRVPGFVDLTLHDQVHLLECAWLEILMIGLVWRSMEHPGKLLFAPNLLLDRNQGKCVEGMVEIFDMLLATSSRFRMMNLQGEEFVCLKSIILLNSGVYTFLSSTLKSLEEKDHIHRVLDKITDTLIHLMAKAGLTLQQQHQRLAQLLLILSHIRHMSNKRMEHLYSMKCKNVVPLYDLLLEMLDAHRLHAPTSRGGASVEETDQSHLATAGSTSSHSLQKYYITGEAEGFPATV

GST-ERα wt-LBD = biological target: T2, GST-ERα wt-LBD (Homo sapiens, UniProt P03372); assay: competitive radiometric 3[H]E2 displacement binding assay, wt LBD
T2 construct: made in house; host or cells: E. coli BL21 (CodonPlus DE3-RIL)
T2 sequence (P03372 303-595): T1 sequence (P03372 303-595 G521R) with R219G
Method: Microplates (Basic Flashplates, NEN) wells were coated for 12 hrs at 4° C. with 100 μl of PBS containing anti-GST antibodies (Amersham) at a concentration of 5 μg/ml. After washing three times with 200 μl of PBS, the background was reduced by saturating with 200 μl of PBS containing 1% BSA for 3 hrs at 4° C. Wells were then washed three times with 200 μl of lysis buffer containing 0.1 M NaCl and 0.2% n-Dodecyl BD-maltoside (assay buffer).
Suitable amounts of crude E. coli supernatants containing the GST-ER LBD proteins (2-10 μl) or of purified polypeptides (8 nM) were bound to the anti-GST antibody-coated wells for 1 hr at 23° C. in 200 μl of the assay buffer with constant agitation. After three more washes with 200 μl of the same buffer, the ligand-binding reaction was set up in 195 μl of assay buffer containing 2 nM-10 nM 3[H]E2 and 5 μl of DMSO or of suitable dilutions of the test compounds in DMSO. Incubation was for 2 hrs at 23° C. with constant shaking, followed by SPA radioactivity measurement using a microplate scintillation and luminescence counter (Top Count NXT, Packard). IC50 values were obtained by multiparameter logistic fitting of the experimental data with the aid of a Kaleidagraph software.

hERα = biological target: T3, hERα (Homo sapiens, UniProt P03372); assay: binding to full-length hERα
T3 construct: relative to the wt LBD and to both α and β full-length ER
T3 sequence (P03372 1-595): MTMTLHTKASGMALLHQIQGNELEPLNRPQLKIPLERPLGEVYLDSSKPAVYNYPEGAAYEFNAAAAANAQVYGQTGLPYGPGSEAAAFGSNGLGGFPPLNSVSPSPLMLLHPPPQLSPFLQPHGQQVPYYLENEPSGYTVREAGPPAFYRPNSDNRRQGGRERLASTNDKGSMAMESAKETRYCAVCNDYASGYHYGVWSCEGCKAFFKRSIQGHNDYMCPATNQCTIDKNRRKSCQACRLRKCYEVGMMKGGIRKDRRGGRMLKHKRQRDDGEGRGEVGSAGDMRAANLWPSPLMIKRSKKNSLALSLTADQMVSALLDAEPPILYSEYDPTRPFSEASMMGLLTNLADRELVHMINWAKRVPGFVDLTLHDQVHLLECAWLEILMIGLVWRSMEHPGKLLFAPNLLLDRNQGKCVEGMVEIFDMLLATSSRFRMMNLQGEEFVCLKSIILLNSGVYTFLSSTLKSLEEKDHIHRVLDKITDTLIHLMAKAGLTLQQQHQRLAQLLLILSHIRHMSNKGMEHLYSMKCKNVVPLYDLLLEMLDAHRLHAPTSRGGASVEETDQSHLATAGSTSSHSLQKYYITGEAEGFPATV

hERβ = hERβ (Homo sapiens, UniProt Q92731); assay: binding to full-length hERβ; conditions: full-length receptor
[1] = tested on: MG-LBD variant with Gly521 substituted with Val, Leu, Met, or Arg; assay: β-Galactosidase transcription assay in yeast, Gly521 substitutions in MG-LBD; format: cell-based, human; conditions: data not shown
[2] = 3[H]E2 displacement, read-out: GST-ERα wt-LBD IC50
[3] = full-length receptor, read-out: hERα IC50

Chain of hERβ (Q92731 whole entry, the tested form may be a part): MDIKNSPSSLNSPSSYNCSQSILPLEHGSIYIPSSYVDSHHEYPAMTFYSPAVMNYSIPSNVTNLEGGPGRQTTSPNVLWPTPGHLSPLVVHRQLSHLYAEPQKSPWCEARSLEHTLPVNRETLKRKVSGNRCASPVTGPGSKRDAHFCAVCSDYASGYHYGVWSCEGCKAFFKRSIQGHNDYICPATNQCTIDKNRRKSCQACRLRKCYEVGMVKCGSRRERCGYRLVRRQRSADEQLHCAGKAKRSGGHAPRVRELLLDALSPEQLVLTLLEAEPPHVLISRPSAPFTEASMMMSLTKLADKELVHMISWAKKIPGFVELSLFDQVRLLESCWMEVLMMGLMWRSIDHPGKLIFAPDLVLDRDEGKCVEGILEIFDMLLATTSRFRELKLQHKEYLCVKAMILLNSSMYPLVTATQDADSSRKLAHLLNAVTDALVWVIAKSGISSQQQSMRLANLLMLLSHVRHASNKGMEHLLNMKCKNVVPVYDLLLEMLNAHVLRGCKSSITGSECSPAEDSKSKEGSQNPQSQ

Molecule	IC50 (GST-ERα wt-LBD; [2]) [nM]	IC50 (hERβ) [nM]	IC50 (hERα; [3]) [nM]	other results
4 hydroxytamoxifen [4-OH Tam]	–	–	–	drug-dependent transgene induction (HEA-1): up to hundred-fold
CC1=C2c3ccc(O)cc3CC2(Cc2ccccc2)CCC1=O (stereo not shown) [CMP4, 9a-benzyl-7-hy-droxy-4-methyl-1,2,9,9a-tetra-hydro-3H-fluor-en-3-one]	2320	506	–	IC50 (hERα): 1470 nM; response (trans-activation in yeast) [1]: dramatic loss of response
CC1=C2c3ccc4[nH]ncc4c3CC2(Cc2ccccc2)CCC1=O (stereo not shown) [CMP5, 6-methyl-9a-ben-zyl-8,9,9a,10-tetra-hydroindeno[2,1-e]in-dazol-7(3H)-one]	> 10000	1250	> 10000	–
O=C1CCC2(Cc3ccccc3)Cc3cc(O)ccc3C2=C1c1ccc(O)cc1 (stereo not shown) [CMP6, 9a-benzyl-7-hydroxy-4-(4-hy-droxyphenyl)-1,2,9,9a-tetra-hydro-3H-flour-en-3-one]	–	96	–	IC50 (GST-ERα wt-LBD): 1370 nM; IC50 (hERα): 223 nM
CCCCC1=C2c3ccc(O)cc3CC2(Cc2ccccc2)CCC1=O (stereo not shown) [CMP7, 9a-benzyl-4-butyl-7-hy-droxy-1,2,9,9a-tetra-hydro-3H-fluor-en-3-one]	1310	307	259	–
O=C1CCC2(Cc3ccc(Cl)cc3)Cc3cc(O)ccc3C2=C1c1ccc(OCCN2CCCCC2)cc1 (stereo not shown) [CMP8, 9a-(4-chlorobenzyl)-7-hy-droxy-4-{4-[2-(1-pipe-ridinyl)-eth-oxy]phenyl}-1,2,9,9a-tetra-hydro-3H-fluor-en-3-one]	4440	2230	1080	–
O=C1CCC2(Cc3ccccc3)Cc3c(ccc4[nH]ncc34)C2=C1c1ccc(OCCN2CCCCC2)cc1 (stereo not shown) [CMP9, 9a-benzyl-6-{4-[2-(1-pipe-ridinyl)eth-oxy]phenyl}-8,9,9a,10-tetra-hydroindeno[2,1-e]in-dazol-7(3H)-one hydrotrifluoroacetae salt]	–	125	–	–
O=C1CCC2(Cc3ccccc3)Cc3cc(O)ccc3C2=C1c1ccc(OCCN2CCCCC2)cc1 (stereo not shown) [CMP10, 9a-benzyl-7-hy-droxy-4-{4-[2-(1-pipe-ridinyl)-eth-oxy]phenyl}-1,2,9,9a-tetra-hydro-3H-fluor-en-3-one]	–	184	–	IC50 (GST-ERα wt-LBD): 1270 nM; IC50 (hERα): 375 nM
O=C1CCC2(Cc3ccccc3)Cc3cc(O)ccc3C2=C1c1ccc(OCCN2CCOCC2)cc1 (stereo not shown) [CMP11, 9a-benzyl-7-hy-droxy-4-{4-[2-(4-mor-pholinyl)-eth-oxy]phenyl}-1,2,9,9a-tetra-hydro-3H-fluor-en-3-one]	–	–	–	IC50 (GST-ERα wt-LBD): 2310 nM
CN(C)CCOc1ccc(C2=C3c4ccc(O)cc4CC3(Cc3ccccc3)CCC2=O)cc1 (stereo not shown) [CMP12, 9a-benzyl-4-{4-[2-(di-methylamino)ethoxy]phe-nyl}-7-hydroxy-1,2,9,9a-tetra-hydro-3H-fluor-en-3-one]	4170	–	–	–
O=C1CCC2(Cc3ccccc3)Cc3cc(O)ccc3C2=C1c1ccccn1 (stereo not shown) [CMP13, 9a-benzyl-7-hydroxy-4-py-ridin-2-yl-1,2,9,9a-tetra-hydro-3H-fluor-en-3-one]	> 3600	–	–	–
O=C1CCC2(Cc3ccccc3)Cc3cc(O)ccc3C2=C1c1cccnc1 (stereo not shown) [CMP14, 9a-benzyl-7-hydroxy-4-py-ridin-3-yl-1,2,9,9a-tetra-hydro-3H-fluor-en-3-one]	> 3600	–	–	–
O=C1CCC2(Cc3ccccc3)Cc3cc(O)ccc3C2=C1c1ccncc1 (stereo not shown) [CMP15, 9a-benzyl-7-hydroxy-4-py-ridin-4-yl-1,2,9,9a-tetra-hydro-3H-fluor-en-3-one]	725	558	1180	–
CC1=C2c3ccc(O)cc3CC2(Cc2ccc(Cl)cc2)CCC1=O (stereo not shown) [CMP17, 9a-(4-chlorobenzyl)-7-hy-droxy-4-methyl-1,2,9,9a-tetra-hydro-3%{H}-fluor-en-3-one]	6830	–	–	–
CC1=C2c3cc(Br)c(O)c(Br)c3CC2(Cc2ccccc2)CCC1=O (stereo not shown) [CMP24, 9a-benzyl-6,8-di-bromo-7-hydroxy-4-meth-yl-1,2,9,9a-tetra-hydro-3%{H}-fluor-en-3-one]	> 180000	–	–	–
CC1=C2c3ccc4[nH]ncc4c3CC2(Cc2ccc(F)cc2)CCC1=O (stereo not shown) [CMP25, 6-methyl-9a-(4-fluoro-benzyl)-8,9,9a,10-tetra-hydroindeno[2,1-e]in-dazol-7(3H)-one]	–	997	–	–
CC1=C2c3ccc4[nH]ncc4c3CC2(Cc2cccc(F)c2)CCC1=O (stereo not shown) [CMP26, 6-methyl-9a-(3-fluoro-benzyl)-8,9,9a,10-tetra-hydroindeno[2,1-e]in-dazol-7(3H)-one]	–	1070	–	–
CC1=C2c3ccc4[nH]ncc4c3CC2(Cc2ccccc2F)CCC1=O (stereo not shown) [CMP27, 6-methyl-9a-(2-fluoro-benzyl)-8,9,9a,10-tetra-hydroindeno[2,1-e]in-dazol-7(3H)-one]	–	529	4300	–
CC1=C2c3ccc4nn[nH]c4c3CC2(Cc2ccccc2)CCC1=O (stereo not shown) [CMP30, 9a-benzyl-6-methyl-8,9,9a,10-tetra-hydrofluoreno[1,2-d][1,2,3]tri-azol-7(3H)-one]	–	4190	–	–
CC1=C2c3ccc4[nH]nnc4c3CC2(Cc2ccccc2C(F)(F)F)CCC1=O (stereo not shown) [CMP34, 9a-[2-(tri-fluoromethyl)benzyl]-6-meth-yl-8,9,9a,10-tetra-hydrofluoreno[1,2-d][1,2,3]tri-azol-7(3H)-one]	–	> 10000	> 10000	–
